Holding throughout (assay): acetylesterase assay, absorbance at […] nm, plate reader
What all share (format): biochemical

One experiment has as its target T1, OafB-SPA^C-short (Salmonella enterica, UniProt A0A0H2WM30).
T1 construct: gene SPA0467; periplasmic C-terminal SGNH domain with shortened SGNHext, residues 399-640; codon-optimised gene; N-terminal His-MBP tag (3C-cleavable) removed; expressed in E. coli Origami
Conditions: 40 uM enzyme (methods print OafB-STM^C-term), 0.5 mM substrate final, 37 C; also acetyl donor for LPS acetylation.

The next experiment deals with T2, OafA-STM^C-long (Salmonella enterica, UniProt Q8ZNJ3).
T2 construct: periplasmic C-terminal SGNH domain with full SGNHext, residues 366-609; N-terminal His-MBP tag (3C-cleavable) removed; expressed in E. coli Origami
T2 sequence (Q8ZNJ3 entry or part of it): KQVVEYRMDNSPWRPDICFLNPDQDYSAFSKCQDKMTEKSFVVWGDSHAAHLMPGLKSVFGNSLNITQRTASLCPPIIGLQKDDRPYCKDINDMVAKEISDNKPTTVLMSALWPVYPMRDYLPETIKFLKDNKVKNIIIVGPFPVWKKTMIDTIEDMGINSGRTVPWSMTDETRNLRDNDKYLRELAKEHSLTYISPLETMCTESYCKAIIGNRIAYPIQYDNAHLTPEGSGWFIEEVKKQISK
Conditions: 10 uM enzyme, 0.5 mM substrate final, 37 C; also acetyl donor for LPS acetylation.

In a further experiment the target is T3, OafB-SPA^C-long (Salmonella enterica, UniProt A0A0H2WM30).
T3 construct: gene SPA0467; periplasmic C-terminal SGNH domain with full SGNHext, residues 377-640; codon-optimised gene; N-terminal His-MBP tag (3C-cleavable) removed; expressed in E. coli Origami
T3 sequence (A0A0H2WM30 entry or part of it): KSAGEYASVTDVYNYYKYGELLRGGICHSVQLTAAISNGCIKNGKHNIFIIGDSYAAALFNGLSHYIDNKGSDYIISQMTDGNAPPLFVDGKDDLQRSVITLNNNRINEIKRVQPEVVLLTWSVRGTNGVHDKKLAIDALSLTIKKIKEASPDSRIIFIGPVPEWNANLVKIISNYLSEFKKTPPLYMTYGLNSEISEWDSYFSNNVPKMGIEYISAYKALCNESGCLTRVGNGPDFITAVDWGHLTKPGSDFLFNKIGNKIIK
As to conditions: 40 uM enzyme (methods print OafB-STM^C-term), 0.5 mM substrate final, 37 C.

For the next experiment, the target named is T4, OafA-STM^C-short (Salmonella enterica, UniProt Q8ZNJ3).
T4 construct: periplasmic C-terminal SGNH domain with shortened SGNHext, residues 379-609; N-terminal His-MBP tag (3C-cleavable) removed; expressed in E. coli Origami
T4 sequence (Q8ZNJ3 entry or part of it): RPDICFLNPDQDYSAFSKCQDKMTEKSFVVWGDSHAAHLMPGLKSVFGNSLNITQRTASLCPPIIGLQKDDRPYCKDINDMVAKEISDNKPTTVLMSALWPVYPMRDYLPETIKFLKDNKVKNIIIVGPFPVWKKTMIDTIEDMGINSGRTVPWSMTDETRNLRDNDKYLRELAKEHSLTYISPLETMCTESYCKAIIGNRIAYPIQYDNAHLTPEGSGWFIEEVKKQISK
Conditions: 10 uM enzyme, 0.5 mM substrate final, 37 C; also acetyl donor for LPS acetylation.

T1 sequence (A0A0H2WM30 entry or part of it): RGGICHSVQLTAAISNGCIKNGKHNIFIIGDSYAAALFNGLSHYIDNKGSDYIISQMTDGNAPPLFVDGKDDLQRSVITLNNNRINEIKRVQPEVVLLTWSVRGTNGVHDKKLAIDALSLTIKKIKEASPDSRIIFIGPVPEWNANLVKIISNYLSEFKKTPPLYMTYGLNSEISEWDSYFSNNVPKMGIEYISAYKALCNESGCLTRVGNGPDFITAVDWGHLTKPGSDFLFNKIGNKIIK

In the case of `CC(=O)Oc1ccc([N+](=O)[O-])cc1` [p-nitrophenyl acetate], the “acetylesterase assay, absorbance at 405 nm, plate reader” value on OafB-SPA^C-short, on OafA-STM^C-long, on OafB-SPA^C-long and on OafA-STM^C-short was “all constructs via their ability to hydrolyze the ester substrate p-nitrophenyl acetate (pNP-Ac)” each time.

These data come from publication PMC7448272, “Acetylation of Surface Carbohydrates in Bacterial Pathogens Requires Coordinated Action of a Two-Domain Membrane-Bound Acyltransferase” (mBio, 2020).
